US9114171B2, “Racecadotril liquid compositions” (McNeil-PPC, Inc., priority 2012, dated 2015)

Assay: Stability of Racecadotril in Beta-HPCD at 40° C., pH 3.6/4.0/4.5 (HPLC)
Format: physicochemical
Settings: Citrate
Experimental: Test Methods Sample Preparation: • 1. Pipet 1 mL of Racecadotril solution into a 100 mL volumetric flask (V.F.) • 2. Dilute to volume with the same buffer used in the solution preparation. • 3. Further dilute the sample solution to about 0.1 mg/mL if necessary. […] Parameters may be modified to optimize chromatography. • The assay of Racecadotril is determined by using the external standard injected. The degradation products levels are determined by % peak area relative to the Racecadotril peak. Chromatographic Conditions (European Pharmacopoeia Racecadotril Method): [table] Gradient Table: [table] Mobil Phase A: Phosphate buffer, pH 2.5 (Buffer prep: dissolve 1 g of potassium dihydrogen phosphate in water, adjust to pH 2.5 with phosphoric acid, dilute to 1000 mL with water) Mobil Phase B: 100% Acetonitrile Stability of Racecadotril in Beta-Hydroxypropyl-Cyclodextrin (Beta-HPCD) at 40° C.

Structure (SMILES): CC(=O)SCC(Cc1ccccc1)C(=O)NCC(=O)OCc1ccccc1 (racemic) [Racecadotril]
- Benz Alcohol (pH 3.6, 40° C., 1 week): 0.79%
- Impurity C (pH 3.6, 40° C., 1 week): 0.98%
- Impurity G (pH 3.6, 40° C., 1 week): 1.78%
- RAC (pH 3.6, 40° C., 1 week): 96.45%
- Thiorphan (pH 3.6, 40° C., 1 week): 0.00%
- Benz Alcohol (pH 3.6, 40° C., 2 week): 1.72%
- Impurity C (pH 3.6, 40° C., 2 week): 2.30%
- Impurity G (pH 3.6, 40° C., 2 week): 3.81%
- RAC (pH 3.6, 40° C., 2 week): 92.01%
- Thiorphan (pH 3.6, 40° C., 2 week): 0.13%
- Benz Alcohol (pH 3.6, 40° C., 3 week): 2.59%
- Impurity C (pH 3.6, 40° C., 3 week): 3.36%
- Impurity G (pH 3.6, 40° C., 3 week): 5.52%
- RAC (pH 3.6, 40° C., 3 week): 88.22%
- Thiorphan (pH 3.6, 40° C., 3 week): 0.31%
- Benz Alcohol (pH 3.6, 40° C., 4 week): 3.38%
- Impurity C (pH 3.6, 40° C., 4 week): 4.23%
- Impurity G (pH 3.6, 40° C., 4 week): 7.38%
- RAC (pH 3.6, 40° C., 4 week): 84.51%
- Thiorphan (pH 3.6, 40° C., 4 week): 0.47%
- Benz Alcohol (pH 3.6, 40° C., 6 week): 5.09%
- Impurity C (pH 3.6, 40° C., 6 week): 6.13%
- Impurity G (pH 3.6, 40° C., 6 week): 9.72%
- RAC (pH 3.6, 40° C., 6 week): 77.91%
- Thiorphan (pH 3.6, 40° C., 6 week): 1.11%
- Benz Alcohol (pH 3.6, 40° C., 8 week): 6.64%
- Impurity C (pH 3.6, 40° C., 8 week): 7.54%
- Impurity G (pH 3.6, 40° C., 8 week): 12.47%
- RAC (pH 3.6, 40° C., 8 week): 71.51%
- Thiorphan (pH 3.6, 40° C., 8 week): 1.80%
- Benz Alcohol (pH 3.6, 40° C., Initial): 0.00%
- Impurity C (pH 3.6, 40° C., Initial): 0.00%
- Impurity G (pH 3.6, 40° C., Initial): 0.09%
- RAC (pH 3.6, 40° C., Initial): 99.91%
- Thiorphan (pH 3.6, 40° C., Initial): 0.00%
- Benz Alcohol (pH 4.0, 40° C., 1 week): 0.89%
- Impurity C (pH 4.0, 40° C., 1 week): 1.23%
- Impurity G (pH 4.0, 40° C., 1 week): 1.95%
- RAC (pH 4.0, 40° C., 1 week): 95.93%
- Thiorphan (pH 4.0, 40° C., 1 week): 0.00%
- Benz Alcohol (pH 4.0, 40° C., 2 week): 1.41%
- Impurity C (pH 4.0, 40° C., 2 week): 1.82%
- Impurity G (pH 4.0, 40° C., 2 week): 3.47%
- RAC (pH 4.0, 40° C., 2 week): 93.19%
- Thiorphan (pH 4.0, 40° C., 2 week): 0.11%
- Benz Alcohol (pH 4.0, 40° C., 3 week): 2.36%
- Impurity C (pH 4.0, 40° C., 3 week): 2.82%
- Impurity G (pH 4.0, 40° C., 3 week): 4.79%
- RAC (pH 4.0, 40° C., 3 week): 89.81%
- Thiorphan (pH 4.0, 40° C., 3 week): 0.21%
- Benz Alcohol (pH 4.0, 40° C., 4 week): 2.79%
- Impurity C (pH 4.0, 40° C., 4 week): 3.43%
- Impurity G (pH 4.0, 40° C., 4 week): 6.57%
- RAC (pH 4.0, 40° C., 4 week): 86.78%
- Thiorphan (pH 4.0, 40° C., 4 week): 0.40%
- Benz Alcohol (pH 4.0, 40° C., 6 week): 4.19%
- Impurity C (pH 4.0, 40° C., 6 week): 4.98%
- Impurity G (pH 4.0, 40° C., 6 week): 9.24%
- RAC (pH 4.0, 40° C., 6 week): 80.70%
- Thiorphan (pH 4.0, 40° C., 6 week): 0.85%
- Benz Alcohol (pH 4.0, 40° C., 8 week): 5.54%
- Impurity C (pH 4.0, 40° C., 8 week): 6.22%
- Impurity G (pH 4.0, 40° C., 8 week): 11.26%
- RAC (pH 4.0, 40° C., 8 week): 75.46%
- Thiorphan (pH 4.0, 40° C., 8 week): 1.42%
- Benz Alcohol (pH 4.0, 40° C., Initial): 0.00%
- Impurity C (pH 4.0, 40° C., Initial): 0.00%
- Impurity G (pH 4.0, 40° C., Initial): 0.00%
- RAC (pH 4.0, 40° C., Initial): 100.00%
- Thiorphan (pH 4.0, 40° C., Initial): 0.00%
- Benz Alcohol (pH 4.5, 40° C., 1 week): 0.22%
- Impurity C (pH 4.5, 40° C., 1 week): 0.18%
- Impurity G (pH 4.5, 40° C., 1 week): 3.15%
- RAC (pH 4.5, 40° C., 1 week): 96.44%
- Thiorphan (pH 4.5, 40° C., 1 week): 0.01%
- Benz Alcohol (pH 4.5, 40° C., 2 week): 0.40%
- Impurity C (pH 4.5, 40° C., 2 week): 0.36%
- Impurity G (pH 4.5, 40° C., 2 week): 6.04%
- RAC (pH 4.5, 40° C., 2 week): 93.19%
- Thiorphan (pH 4.5, 40° C., 2 week): 0.03%
- Benz Alcohol (pH 4.5, 40° C., 3 week): 0.59%
- Impurity C (pH 4.5, 40° C., 3 week): 0.52%
- Impurity G (pH 4.5, 40° C., 3 week): 8.66%
- RAC (pH 4.5, 40° C., 3 week): 90.20%
- Thiorphan (pH 4.5, 40° C., 3 week): 0.06%
- Benz Alcohol (pH 4.5, 40° C., 4 week): 0.79%
- Impurity C (pH 4.5, 40° C., 4 week): 0.62%
- Impurity G (pH 4.5, 40° C., 4 week): 11.16%
- RAC (pH 4.5, 40° C., 4 week): 87.41%
- Thiorphan (pH 4.5, 40° C., 4 week): 0.10%
- Benz Alcohol (pH 4.5, 40° C., 6 week): 1.14%
- Impurity C (pH 4.5, 40° C., 6 week): 0.90%
- Impurity G (pH 4.5, 40° C., 6 week): 15.86%
- RAC (pH 4.5, 40° C., 6 week): 82.05%
- Thiorphan (pH 4.5, 40° C., 6 week): 0.17%
- Benz Alcohol (pH 4.5, 40° C., 8 week): 1.51%
- Impurity C (pH 4.5, 40° C., 8 week): 1.11%
- Impurity G (pH 4.5, 40° C., 8 week): 19.95%
- RAC (pH 4.5, 40° C., 8 week): 77.34%
- Thiorphan (pH 4.5, 40° C., 8 week): 0.29%
- Benz Alcohol (pH 4.5, 40° C., Initial): 0.02%
- Impurity C (pH 4.5, 40° C., Initial): 0.01%
- Impurity G (pH 4.5, 40° C., Initial): 0.19%
- RAC (pH 4.5, 40° C., Initial): 99.71%
- Thiorphan (pH 4.5, 40° C., Initial): 0.01%
